Values joined by “and” are separate entries in the source; they are usually repeats but may differ in a detail not shown here. Equal entries are not always repeated.
Target: T1, IKs current (Chromanol 293B sensitive current) (Cavia porcellus, UniProt O70344)
T1 construct: Single ventricular myocytes were acutely enzymatically isolated from guinea pig heart; endogenous in cells; host or cells: freshly isolated guinea pig ventricular myocytes
T1 sequence (O70344 1-671): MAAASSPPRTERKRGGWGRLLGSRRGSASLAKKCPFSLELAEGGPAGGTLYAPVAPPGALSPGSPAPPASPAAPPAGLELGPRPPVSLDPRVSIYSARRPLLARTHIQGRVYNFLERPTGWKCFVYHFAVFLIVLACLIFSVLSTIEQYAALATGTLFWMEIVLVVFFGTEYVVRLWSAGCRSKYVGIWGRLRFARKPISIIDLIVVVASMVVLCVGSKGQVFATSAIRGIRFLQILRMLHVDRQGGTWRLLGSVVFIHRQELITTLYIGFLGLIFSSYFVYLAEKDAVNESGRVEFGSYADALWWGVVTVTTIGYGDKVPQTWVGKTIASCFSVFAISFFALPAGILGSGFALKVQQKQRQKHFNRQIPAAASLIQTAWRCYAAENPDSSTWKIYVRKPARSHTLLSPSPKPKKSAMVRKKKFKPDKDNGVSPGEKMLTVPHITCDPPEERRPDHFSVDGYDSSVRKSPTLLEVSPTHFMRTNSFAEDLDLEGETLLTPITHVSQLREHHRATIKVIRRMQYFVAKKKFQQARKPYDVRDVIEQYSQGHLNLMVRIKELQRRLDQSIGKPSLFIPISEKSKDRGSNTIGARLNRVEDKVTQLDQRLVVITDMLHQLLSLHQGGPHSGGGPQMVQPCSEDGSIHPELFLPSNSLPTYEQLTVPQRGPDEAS
Assay: IKs measurements in isolated ventricular cells (whole-cell patch clamp);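 on IKs current against voltage, source data Fig. 7d: tail currents measured at the -20 mV return potential after each test voltage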
Format: cell-based, guinea pig
Design: key to IKs current against time, source data Fig. 7b: IKs current normalized to cell capacitance (current density)
Conditions: for IKs current against voltage, source data Fig. 7d / IKs current against time, source data Fig. 7b: individual cells
Description: The KCNQ1 and KCNE1 complex forms the cardiac IKs channel, which is important in terminating cardiac action potentials and regulating heart rate[1],[2],[13]. We tested if CP1 modulates the IKs channel in cardiac myocytes. Similar to the results from KCNQ1 + KCNE1 expressed in Xenopus oocytes, in guinea pig ventricular myocyte CP1 enhanced IKs current (Chromanol 293B sensitive current) amplitude (Fig. 7a–c), shifted the G–V relation to more negative voltages (Fig. 7d, e), and slowed the kinetics of deactivation (Fig. 7a).
Fig. 7 Effects of CP1 on IKs and action potentials in cardiomyocytes. a IKs currents in guinea pig ventricular myocytes in the absence and presence of 30 µM CP1 in the whole-cell patch-clamp configuration. Holding potential: −40 mV; testing potentials: −20 to +60 mV with 10-mV increment; returning potential: −20 mV. […] Guinea pig ventricular myocytes were first perfused with 10 µM CP1 and 10 µM chromanol. After APD reached steady state, 10 µM CP1 was constitutively perfused alone. Last, CP1 was washed out for near-full reversal of APD shortening. g Effects of 0.2 µM CP1 on LQT action potentials. To mimic the LQT, 100 µM moxifloxacin was applied 2 h before the treatment of CP1. h Change of action potential duration after application of different [CP1]s (n = 5–7). Tukey–Kramer ANOVA test was used to compare control cells in different CP1 concentration, # is significant at P < 0.05. Unpaired two-tailed Student t tests were used to compare control and moxifloxacin cells at different CP1 concentration: * is significant at P < 0.05.
The use of guinea pigs was approved by the Stony Brook University Institutional Animal Care and Use Committee. Single ventricular myocytes were acutely enzymatically isolated from guinea pig heart as previously described. Guinea pigs, weighing 300–500 g, were sacrificed by peritoneal injection of sodium pentobarbitone (1 ml, 390 mg/ml). The isolated cells were stored in KB solution containing (in mM) 83 KCl, 30 K2HPO4, 5 MgSO4, 5 Na pyruvate, 5 β-OH-butyric acid, 20 creatine, 20 taurine, 10 glucose, and 0.5 EGTA, pH 7.2.
An Axopatch 1D amplifier (Axon Instruments, Inc.) and the whole-cell patch-clamp technique were used to measure the IKs current. The patch pipette solution contained (in mM) 140 KMeSO3, 20 HEPES, 2 KCl, 5 EGTA, and 5 MgATP, pH 7.4. The external Tyrode contains (in mM) 137.7 NaCl, 2.3 NaOH, 8 KCl, 1 MaCl2, 5 HEPES, 1 CdCl2, and 10 Glucose, pH 7.4. The cells were held at −40 mV and stepped to −20 mV, then to +60 mV with an increment of 10 mV, to measure the membrane current in the absence and the presence of chromanol 293B (10 μM). The chromanol 293B sensitive current was defined as the IKs current normalized to its cell capacitance. These experimental protocols and conditions eliminate most of the other membrane currents, such as IP, INa, ICa, and INa/Ca, except IK, so that we could obtain better experiment resolution.
Electrophysiology data were processed with IGOR (Wavemetrics, Lake Oswego, OR), Clampfit (Molecular Devices, Sunnyvale, CA), and SigmaPlot (SPSS, Inc., San Jose, CA). Normalized tail currents were plotted versus prepulse voltage and fitted with the Boltzmann function G = G0 + 1/(1 + exp(V − V1/2)/S), where G0 is the minimum conductance, V1/2 is the half-maximal voltage of activation, and S is the slope factor. Dose–response curves in Fig. 3 were fitted with the Hill equation, E = […], where EC50 is the drug concentration producing the half-maximum response and P is the Hill coefficient. In Fig. 7c, e, the EC50 values were obtained by fitting the data to IKs = IMin + (IMax − IMin) ([CP1]/([CP1] + EC50)) and V1/2 = V1/2 min + (V1/2Max − V1/2 min) ([CP1]/([CP1] + EC50)). The deactivation time course was fitted with single-exponential function. All data are expressed as mean ± SEM (n ≥ 3 or otherwise indicated). […]

**Q.** `O=S(=O)([O-])Oc1c(-c2sc3c(ccc4cccc(Cl)c43)c2OS(=O)(=O)[O-])[nH]c2ccc(Br)cc12.[Na+].[Na+]` [CP1, DISODIUM 5-BROMO-2-[9-CHLORO-3-(SULFONATOOXY) NAPHTHO [1,2-B] THIEN-2-YL]-1H-INDOL-3-YL SULFATE] was tested. Which “IKs current against voltage, source data Fig. 7d” value (“IKs current against voltage” for short) (0.2 µM CP1, V 0 mV) did it give?
**A.** 0.1478 and -0.1008 and 0.4867 and 0.5994 and 0.4202 and 0.2428

**Q.** And the “IKs current against voltage” value (0.2 µM CP1, V 10 mV)?
**A.** 0.1364 and -8.00E-03 and 0.5359 and 0.687 and 0.4359 and 0.4419

**Q.** What about the “IKs current against voltage” value (0.2 µM CP1, V 20 mV) of the same compound?
**A.** 0.5204 and 0.1788 and 0.7643 (2×) and 0.8582 and 0.5444

**Q.** And the “IKs current against voltage” value (0.2 µM CP1, V 30 mV)?
**A.** 0.487 and 0.358 and 1.0844 and 1.2573 and 1.0686 and 0.7892

**Q.** What about the “IKs current against voltage” value (0.2 µM CP1, V 40 mV) of the same compound?
**A.** 1.432 and 0.5726 and 1.6914 and 1.171 and 1.2536 and 1.1694

**Q.** What about the “IKs current against voltage” value (0.2 µM CP1, V 50 mV) of the same compound?
**A.** 1.7002 and 1.1486 and 1.9537 (2×) and 1.6685 and 1.6372

**Q.** And the “IKs current against voltage” value (0.2 µM CP1, V 60 mV)?
**A.** 2.1519 and 1.35 and 2.301 (2×) and 1.8192 and 1.8132

**Q.** And the “IKs current against voltage” value (0.2 µM CP1, V -10 mV)?
**A.** 0.058 and -0.1764 and 0.4431 and 0.2854 and 0.2431 and 0.2625

**Q.** What about the “IKs current against voltage” value (0.2 µM CP1, V -20 mV) of the same compound?
**A.** -0.0553 and -0.0272 and 0.3362 and 0.2344 and 0.1098 and 0.1296

**Q.** What about the “IKs current against time, source data Fig. 7b” value (from here on “IKs current against time”) (0.2 µM CP1, time 0.5 s) of the same compound?
**A.** -0.15 and 2.22E-03 and 0.4227 and 0.5059 and 0.5369 and 0.8337

**Q.** What about the “IKs current against time” value (0.2 µM CP1, time 1.5 s) of the same compound?
**A.** 1.1736 and 1.2252 and 1.6869 and 1.7762 and 1.8153 and 1.921

**Q.** And the “IKs current against time” value (0.2 µM CP1, time 2.5 s)?
**A.** 2.3476 and 2.2614 and 2.5619 and 2.5792 and 2.5781 and 2.9902

**Q.** And the “IKs current against time” value (0.2 µM CP1, time 3.5 s)?
**A.** 4.1533 and 3.1046 and 3.3699 and 3.1301 and 3.5796 and 4.2972

**Q.** And the “IKs current against time” value (0.2 µM CP1, time 4.5 s)?
**A.** 4.9536 and 3.6388 and 3.9362 and 3.649 and 4.0225 and 4.5344

**Q.** And the “IKs current against voltage” value (6 µM CP1, V 0 mV)?
**A.** 0.1828 and 0.4288 and 0.6932 and 0.8299 and 0.4703 and 1.0496

**Q.** And the “IKs current against voltage” value (6 µM CP1, V 10 mV)?
**A.** 0.4205 and 0.6933 and 0.9149 and 1.2568 and 0.6403 and 1.5345

**Q.** And the “IKs current against voltage” value (6 µM CP1, V 20 mV)?
**A.** 0.8957 and 1.1412 and 1.496 and 1.8852 and 1.1797 and 2.1199

**Q.** What about the “IKs current against voltage” value (6 µM CP1, V 30 mV) of the same compound?
**A.** 2.1345 and 1.6765 and 2.1151 and 2.7982 and 1.9302 and 2.5318

**Q.** What about the “IKs current against voltage” value (6 µM CP1, V 40 mV) of the same compound?
**A.** 3.0845 and 2.1666 and 2.3348 and 3.4682 and 2.4976 and 3.0115

**Q.** And the “IKs current against voltage” value (6 µM CP1, V 50 mV)?
**A.** 3.95 and 2.5666 and 2.4371 and 4.0362 and 3.2962 and 3.3006

**Q.** What about the “IKs current against voltage” value (6 µM CP1, V 60 mV) of the same compound?
**A.** 4.0182 and 2.7319 and 3.0293 and 4.3101 and 3.6782 and 3.5497

**Q.** And the “IKs current against voltage” value (6 µM CP1, V -10 mV)?
**A.** 0.0746 and 0.3017 and 0.5691 and 0.6051

**Q.** And the “IKs current against time” value (6 µM CP1, time 0.5 s)?
**A.** 2.2824 and 1.9027 and 1.3849 and 1.6373 and 2.0899 and 2.4967

**Q.** And the “IKs current against time” value (6 µM CP1, time 1.5 s)?
**A.** 5.0013 and 4.6878 and 3.7768 and 4.1793 and 4.2368 and 4.8342

**Q.** And the “IKs current against time” value (6 µM CP1, time 2.5 s)?
**A.** 7.088 and 6.1654 and 5.3805 and 5.9272 and 5.6946 and 5.9483

**Q.** And the “IKs current against time” value (6 µM CP1, time 3.5 s)?
**A.** 7.9334 and 7.0333 and 6.1833 and 7.248 and 6.5654 and 6.4263

**Q.** What about the “IKs current against time” value (6 µM CP1, time 4.5 s) of the same compound?
**A.** 8.5672 and 7.9674 and 7.2346 and 7.483 and 7.0133 and 6.9913

**Q.** And the “IKs current against time” value (30 µM CP1, time 0.5 s)?
**A.** 7.2666 and 7.1831 and 9.1229 and 4.6448 and 5.4151 and 6.3301 and 8.2811

**Q.** And the “IKs current against time” value (30 µM CP1, time 1.5 s)?
**A.** 8.5502 and 9.0214 and 10.3674 and 6.9314 and 7.3351 and 7.6047 and 9.524

**Q.** And the “IKs current against time” value (30 µM CP1, time 2.5 s)?
**A.** 9.051 and 9.8065 and 11.122 and 8.4037 and 8.6405 and 8.1616 and 9.9386

**Q.** What about the “IKs current against time” value (30 µM CP1, time 3.5 s) of the same compound?
**A.** 9.3536 and 10.9247 and 11.9708 and 9.4071 and 9.5173 and 8.9351 and 10.1733

**Q.** What about the “IKs current against time” value (30 µM CP1, time 4.5 s) of the same compound?
**A.** 10.006 and 11.718 and 12.1269 and 10.5686 and 10.3666 and 9.5544 and 10.5156

**Q.** What about the EC50 (at +60 mV, read-out: EC50 of IKs current amplitude) of the same compound?
**A.** 7.54 µM
